According to US10413557B2, “Prodrugs of 17.BETA.-HSD1-inhibitors” (FORENDO PHARMA LTD, priority 2014, dated 2019):

How the values were obtained:
[1] = target: T1, recombinant human 17β-HSD2 (Homo sapiens, UniProt P37059); test: Inhibition of recombinant human 17β-HSD2 (conversion of 3H-estradiol to estrone, HPLC); type: biochemical; conditions: inhibitor 1 μM; 50 nM estradiol, 1 mM NADH, 30 min RT
T1 construct: made in house; host or cells: Sd9 (Sf9) insect cells, baculovirus (Bac to Bac Expression System)
T1 sequence (P37059 1-387): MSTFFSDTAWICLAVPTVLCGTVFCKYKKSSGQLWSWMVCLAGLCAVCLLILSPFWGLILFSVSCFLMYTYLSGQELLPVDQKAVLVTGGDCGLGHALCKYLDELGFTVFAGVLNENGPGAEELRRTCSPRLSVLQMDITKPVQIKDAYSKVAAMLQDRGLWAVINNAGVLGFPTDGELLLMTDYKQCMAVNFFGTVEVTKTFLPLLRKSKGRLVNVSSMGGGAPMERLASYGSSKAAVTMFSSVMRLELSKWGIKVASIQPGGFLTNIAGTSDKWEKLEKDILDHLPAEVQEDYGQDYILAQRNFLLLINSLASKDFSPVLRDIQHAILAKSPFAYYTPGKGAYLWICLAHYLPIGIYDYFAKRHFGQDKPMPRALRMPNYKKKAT
Description: 17β-HSD2 production and isolation: Similarly to 17β-HSD1 the Recombinant baculovirus was generated by the “Bac to Bac Expression System” (Invitrogen). Recombinant bacmid was transfected to Sd9 insect cells using “Cellfectin Reagent” (Invitrogen). 60 h later cells were harvested and supernatant were fractionated by the following protocol: • cells were dissolved into 40 ml of A-buffer (40 mM TRIS, pH8.0, 20% glycerol, 20 μM NAD, 0.4 mM PMSF, 150 mM NaCl, 0.5% dodecyl-β-maltoside+protease inhibitor cocktail) • cells were sonicated • lysate was incubated on ice for 15 min • lysate was centrifuged 5000 rpm 15 min, +4° C. • centrifugation of the supernatant 180 000 g 30 min, +4° C. • pellet was dissolved into 8 ml of A-buffer • not resuspended material was removed by centrifugation 5000 rpm 15 min, +4° C. • the clear supernatant was divided into 100 μl aliquots and were stored frozen until determination of enzymatic activity.
The amount of 17β-HSD2 was analysed by immunoblotting and total protein concentration of each extract batch was determined.
Assay—Inhibition of recombinant human 17β-HSD2: Protein homogenate (4 μg/ml) was incubated in 20 mM KH2PO4 pH 8.5 with 50 nM estradiol (including 800 000 cpm/ml of ^3H-estradiol) and 1 mM […] for 30 min at RT, in the presence of the potential inhibitor at concentrations 1 μM or 0.1 μM. Inhibitor stock solutions were prepared in DMSO. Final concentration of DMSO was adjusted to 1% in all samples. The enzyme reaction was stopped by addition of 10% trichloroacetic acid (final concentration). Samples were centrifuged in a microtiter plate at 4000 rpm for 10 min. Supernatants were applied to reverse phase HPLC on a Waters Symmetry C18 column, equipped with a Waters Sentry Guard column. Isocratic HPLC runs were performed at RT at a flow rate ofl ml/min in acetonitrile:water 48:52 as running solvent. Radioactivity was monitored in the eluate by a Packard Flow Scintillation Analyzer. Total radioactivity for estrone and estradiol were determined in each sample and percent conversion of estradiol to estrone was calculated according to the following formula:
(§1) Percent inhibition was calculated flowingly: % inhibition=100−% conversion

[2] = target: T2, recombinant human 17β-HSD1 (Homo sapiens, UniProt P14061); test: Inhibition of recombinant human 17β-HSD1 (conversion of 3H-estrone to estradiol, HPLC); type: biochemical; conditions: inhibitor 1 μM; 30 nM estrone, 1 mM NADPH, 30 min RT; read-out: 17β-HDS1 Inhibition % at 1 μM
T2 construct: made in house; host or cells: Sd9 (Sf9) insect cells, baculovirus (Bac to Bac Expression System)
T2 sequence (P14061 1-328): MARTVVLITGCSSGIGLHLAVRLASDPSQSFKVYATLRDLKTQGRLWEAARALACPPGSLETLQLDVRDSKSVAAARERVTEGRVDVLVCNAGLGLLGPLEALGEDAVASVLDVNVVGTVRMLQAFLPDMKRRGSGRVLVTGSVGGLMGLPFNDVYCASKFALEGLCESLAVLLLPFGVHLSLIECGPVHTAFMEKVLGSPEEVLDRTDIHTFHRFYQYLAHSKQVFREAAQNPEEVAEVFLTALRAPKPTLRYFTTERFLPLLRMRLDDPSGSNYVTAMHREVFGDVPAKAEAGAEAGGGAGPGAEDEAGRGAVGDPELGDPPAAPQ
Description: 17β-HSD1 production and isolation: Recombinant baculovirus was generated by the “Bac to Bac Expression System” (Invitrogen). Recombinant bacmid was transfected to Sd9 insect cells using “Cellfectin Reagent” (Invitrogen). 60 h later cells were harvested; the microsomal fraction was isolated as described by Puranen, T. J., Poutanen, M. H., Peltoketo, H. E., Vihko, P. T. and Vihko, R. K. (1994) Site-directed mutagenesis of the putative active site of human 17 β-hydroxysteroid dehydrogenase type 1. Biochem. J. 304: 289-293. Aliquots were stored frozen until determination of enzymatic activity.
Assay—Inhibition of recombinant human 17β-HSD1: Protein homogenate (0.1 μg/ml) was incubated in 20 mM KH2PO4 pH 7.4 with 30 nM estrone (including 800 000 cpm/ml of ^3H-estrone) and 1 mM NADPH for 30 min at RT, in the presence of the potential inhibitor at concentrations 1 μM or 0.1 μM. Inhibitor stock solutions were prepared in DMSO. Final concentration of DMSO was adjusted to 1% in all samples. The enzyme reaction was stopped by addition of 10% trichloroacetic acid (final concentration). Samples were centrifuged in a microtiter plate at 4000 rpm for 10 min. Supernatants were applied to reverse phase HPLC on a Waters Symmetry C18 column, equipped with a Waters Sentry Guard column. Isocratic HPLC runs were performed at RT at a flow rate of 1 ml/min in acetonitrile:water 48:52 as running solvent. Radioactivity was monitored in the eluate by a Packard Flow Scintillation Analyzer. Total radioactivity for estrone and estradiol were determined in each sample and percent conversion of estrone to estradiol was calculated according to the following formula:
as §1

| SMILES | inhibition at 1 µM [1] | inhibition at 1 µM [2] |
| --- | --- | --- |
| CO/N=C1\C[C@@H](CCC(=O)Nc2ncc(C)s2)C2C3CCc4cc(O)c([N+](=O)[O-])cc4C3CC[C@]12C (stereo partly drawn) [VIV-2, 3-{(13S,15R)-3-Hydroxy-17-[(E)-methoxyimino]-13-methyl-2-nitro-7,8,9,11,12,13,14,15,16,17-decahydro-6H-cyclopenta[a]phenanthren-15-yl}-N-(5-methylthiazol-2-yl)propanamide] | 3% | 64% |
| CO/N=C1\C[C@@H](CCC(=O)Nc2ncc(C)s2)C2C3CCc4c(ccc(O)c4[N+](=O)[O-])C3CC[C@]12C (stereo partly drawn) [VIV-4, 3-{(13S,15R)-3-Hydroxy-17-[(E)-methoxyimino]-13-methyl-4-nitro-7,8,9,11,12,13,14,15,16,17-decahydro-6H-cyclopenta[a]phenanthren-15-yl}-N-(5-methylthiazol-2-yl)propanamide] | 16% | 90% |
| CO/N=C1\C[C@@H](CCC(=O)Nc2ncc(C)s2)C2C3CCc4cc(O)c(I)cc4C3CC[C@]12C (stereo partly drawn) [VIV-6, 3-{(13S,15R)-3-Hydroxy-2-iodo-17-[(E)-methoxyimino]-13-methyl-7,8,9,11,12,13,14,15,16,17-decahydro-6H-cyclopenta[a]phenanthren-15-yl}-N-(5-methylthiazol-2-yl)propanamide] | 0% | 90% |
| CO/N=C1\C[C@@H](CCC(=O)Nc2ncc(C)s2)C2C3CCc4c(ccc(O)c4I)C3CC[C@]12C (stereo partly drawn) [VIV-7, 3-{(13S,15R)-3-Hydroxy-4-iodo-17-[(E)-methoxyimino]-13-methyl-7,8,9,11,12,13,14,15,16,17-decahydro-6H-cyclopenta[a]phenanthren-15-yl}-N-(5-methylthiazol-2-yl)propanamide] | 0% | 81% |
| CO/N=C1\C[C@@H](CCC(=O)Nc2ncc(C)s2)C2C3CCc4c(cc(I)c(O)c4I)C3CC[C@]12C (stereo partly drawn) [VIV-8, 3-{(13S,15R)-3-Hydroxy-2,4-diiodo-17-[(E)-methoxyimino]-13-methyl-7,8,9,11,12,13,14,15,16,17-decahydro-6H-cyclopenta[a]phenanthren-15-yl}-N-(5-methylthiazol-2-yl)propanamide] | 2% | 61% |
| CO/N=C1\C[C@@H](CCC(=O)Nc2ncc(C)s2)C2C3CCc4c(ccc(O)c4Br)C3CC[C@]12C (stereo partly drawn) [VIV-10, 3-{(13S,15R)-4-Bromo-3-hydroxy-17-[(E)-methoxyimino]-13-methyl-7,8,9,11,12,13,14,15,16,17-decahydro-6H-cyclopenta[a]phenanthren-15-yl}-N-(5-methylthiazol-2-yl)propanamide] | 6% | 78% |
| CO/N=C1\C[C@@H](CCC(=O)Nc2ncc(C)s2)C2C3CCc4c(cc(Br)c(O)c4Br)C3CC[C@]12C (stereo partly drawn) [VIV-11, 3-{(13S,15R)-2,4-Dibromo-3-hydroxy-17-[(E)-methoxyimino]-13-methyl-7,8,9,11,12,13,14,15,16,17-decahydro-6H-cyclopenta[a]phenanthren-15-yl}-N-(5-methylthiazol-2-yl)propanamide] | 3% | 78% |
| CO/N=C1\C[C@@H](CCC(=O)Nc2ncc(C)s2)C2C3CCc4c(ccc(O)c4Cl)C3CC[C@]12C (stereo partly drawn) [VIV-13, 3-{(13S,15R)-4-Chloro-3-hydroxy-17-[(E)-methoxyimino]-13-methyl-7,8,9,11,12,13,14,15,16,17-decahydro-6H-cyclopenta[a]phenanthren-15-yl}-N-(5-methylthiazol-2-yl)propanamide] | 5% | 86% |
| CO/N=C1\C[C@@H](CCC(=O)Nc2ncc(C)s2)C2C3CCc4c(cc(Br)c(O)c4F)C3CC[C@]12C (stereo partly drawn) [VIV-17, 3-{(13S,15R)-2-Bromo-4-fluoro-3-hydroxy-17-[(E)-methoxyimino]-13-methyl-7,8,9,11,12,13,14,15,16,17-decahydro-6H-cyclopenta[a]phenanthren-15-yl}-N-(5-methylthiazol-2-yl)propanamide] | 2% | 83% |
| CO/N=C1\C[C@@H](CCC(=O)Nc2ncc(C)s2)C2C3CCc4c(cc(F)c(O)c4Br)C3CC[C@]12C (stereo partly drawn) [VIV-18, 3-{(13S,15R)-4-Bromo-2-fluoro-3-hydroxy-17-[(E)-methoxyimino]-13-methyl-7,8,9,11,12,13,14,15,16,17-decahydro-6H-cyclopenta[a]phenanthren-15-yl}-N-(5-methylthiazol-2-yl)propanamide] | 1% | 55% |
| CO/N=C1\C[C@@H](CCC(=O)Nc2ncc(C)s2)C2C3CCc4cc(O)c(C#N)cc4C3CC[C@]12C (stereo partly drawn) [VIV-19, 3-{(13S,15R)-3-hydroxy-17-[(E)-methoxyimino]-13-methyl-2-nitrile-7,8,9,11,12,13,14,15,16,17-decahydro-6H-cyclopenta[a]phenanthren-15-yl}-N-(5-methylthiazol-2-yl)propanamide] | 2% | 93% |
| CO/N=C1\C[C@@H](CCC(=O)Nc2ncc(C)s2)C2C3CCc4c(ccc(O)c4C#N)C3CC[C@]12C (stereo partly drawn) [VIV-20, 3-{(13S,15R)-3-hydroxy-17-[(E)-methoxyimino]-13-methyl-4-nitrile-7,8,9,11,12,13,14,15,16,17-decahydro-6H-cyclopenta[a]phenanthren-15-yl}-N-(5-methylthiazol-2-yl)propanamide] | 0% | 73% |
| Cc1cnc(NC(=O)CC[C@@H]2C/C(=N\O)[C@@]3(C)CCC4c5ccc(O)cc5CCC4C23)s1 (stereo partly drawn) [VIV-22, 3-{(13S,15R)-3-Hydroxy-17-[(E)-hydroxyimino]-13-methyl-7,8,9,11,12,13,14,15,16,17-decahydro-6H-cyclopenta[a]phenanthren-15-yl}-N-(5-methylthiazol-2-yl)propanamide] | 4% | 81% |
| Cc1cnc(NC(=O)CC[C@@H]2C/C(=N\O)[C@@]3(C)CCC4c5cc([N+](=O)[O-])c(O)cc5CCC4C23)s1 (stereo partly drawn) [VIV-23, 3-{(13S,15R)-3-Hydroxy-2-nitro-17-[(E)-hydroxyimino]-13-methyl-7,8,9,11,12,13,14,15,16,17-decahydro-6H-cyclopenta[a]phenanthren-15-yl}-N-(5-methylthiazol-2-yl)propanamide] | 6% | 95% |
